Source: ChEMBL document CHEMBL5113518, “Discovery of a Novel G-Quadruplex and Histone Deacetylase (HDAC) Dual-Targeting Agent for the Treatment of Triple-Negative Breast Cancer” (J Med Chem, 2022)
Active and inactive are the calls of the source. No cut-off for these calls is given here.

Columns and labels:
Quadruplex DNA [1] = test: Binding affinity to 5' FAM-labeled c-myc G4-quadruplex DNA Pu22 (unknown origin) by fluorescence quench assay; type: nucleic-acid assay
Histone deacetylase 4 = Histone deacetylase 4 (Homo sapiens, UniProt P56524); test: Inhibition of full length recombinant N-terminal GST-tagged human HDAC4 (612 to end residues)expressed in baculovirus infected Sf9 insect cells incubated for 50 mins by Glo- luminescence assay
Histone deacetylase 4, sequence (P56524 whole entry): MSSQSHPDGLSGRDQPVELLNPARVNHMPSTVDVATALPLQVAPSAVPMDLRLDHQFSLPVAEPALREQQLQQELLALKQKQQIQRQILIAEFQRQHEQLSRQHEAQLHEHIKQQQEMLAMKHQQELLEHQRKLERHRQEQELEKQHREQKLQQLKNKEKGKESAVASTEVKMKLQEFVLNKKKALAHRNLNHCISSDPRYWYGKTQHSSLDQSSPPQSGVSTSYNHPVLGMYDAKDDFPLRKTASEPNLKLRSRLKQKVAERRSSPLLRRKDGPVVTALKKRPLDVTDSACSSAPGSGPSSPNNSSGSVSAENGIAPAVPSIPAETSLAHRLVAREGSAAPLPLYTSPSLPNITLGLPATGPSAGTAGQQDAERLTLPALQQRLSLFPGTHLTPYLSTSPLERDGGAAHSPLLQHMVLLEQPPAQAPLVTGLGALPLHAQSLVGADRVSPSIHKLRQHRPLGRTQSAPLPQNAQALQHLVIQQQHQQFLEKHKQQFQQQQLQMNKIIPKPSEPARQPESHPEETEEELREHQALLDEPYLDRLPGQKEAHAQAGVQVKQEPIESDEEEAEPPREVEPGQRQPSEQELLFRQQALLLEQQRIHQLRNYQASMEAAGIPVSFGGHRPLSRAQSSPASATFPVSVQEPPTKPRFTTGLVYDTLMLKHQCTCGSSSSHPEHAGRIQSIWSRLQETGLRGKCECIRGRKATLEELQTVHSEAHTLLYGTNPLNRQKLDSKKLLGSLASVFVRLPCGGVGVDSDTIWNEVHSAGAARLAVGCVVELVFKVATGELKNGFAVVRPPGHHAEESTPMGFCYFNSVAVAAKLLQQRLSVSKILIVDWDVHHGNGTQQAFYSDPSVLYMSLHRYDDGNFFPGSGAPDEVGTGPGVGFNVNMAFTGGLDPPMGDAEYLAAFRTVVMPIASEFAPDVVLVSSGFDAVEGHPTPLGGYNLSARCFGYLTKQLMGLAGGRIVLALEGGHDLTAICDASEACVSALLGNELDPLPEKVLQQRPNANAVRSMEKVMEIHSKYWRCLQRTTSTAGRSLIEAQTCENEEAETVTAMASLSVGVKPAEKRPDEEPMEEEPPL

[2] = Inhibition of full length recombinant N-terminal GST-tagged human HDAC11 expressed in baculovirus infected Sf9 insect cells incubated for 50 mins by Glo- luminescence assay; type: cell-based
Quadruplex DNA [3] = test: Binding affinity to 5' FAM-labeled c-myc G4-quadruplex DNA HTG21 (unknown origin) assessed as dissociation constant by surface plasmon resonance assay; type: nucleic-acid assay
Quadruplex DNA [4] = test: Binding affinity to 5' FAM and 3' TAMRA-labeled […] (unknown origin) assessed as change in melting temperature by fluorescence resonance energy transfer assay; type: nucleic-acid assay
Quadruplex DNA [5] = test: Binding affinity to 5' FAM and 3' TAMRA-labeled c-myc G4-quadruplex DNA HTG21 (unknown origin) assessed as change in melting temperature by fluorescence resonance energy transfer assay; type: nucleic-acid assay
Quadruplex DNA [6] = test: Binding affinity to […]' FAM-labeled c-myc G4-quadruplex DNA Pu22 (unknown origin) by fluorescence quench assay; type: nucleic-acid assay
Histone deacetylase = test: Inhibition of HDAC in human MDA-MB-231 cells incubated for 45 mins by luminescence assay; type: cell-based
MDA-MB-231 [7] = test: Stabilization of DNA Pu22 (unknown origin ) in human MDA-MB-231 cells assessed as G4-quadruplex formation by measuring fold change at 2.5 uM incubated for 6 hrs by immunofluorescence based confocal laser scanning microscopic analysis; type: cell-based
MDA-MB-231 [8] = test: Induction of DNA damage in human MDA-MB-231 cells at 1.25 to 5 uM assessed as increase in gamma-H2AX level and measured for 48 hrs by DAPI staining method; type: functional, cell-based; conditions: dose 1.25-5 µM
MDA-MB-231 [9] = test: Effect on metabolism in human MDA-MB-231 cells assessed as oxygen consumption rate at 2.5 uM measured after 48 hrs by seahorse XF24 analysis; type: functional, cell-based
MDA-MB-231 [10] = test: Effect on metabolism in human MDA-MB-231 cells assessed as reduction in glycolysis at 2.5 uM measured after 48 hrs by seahorse XF24 analysis; type: functional, cell-based
MDA-MB-231 [11] = test: Cytotoxicity against human MDA-MB-231 cells harboring wild type BRCA1 and wild BRCA2 assessed as reduction in cell viability; type: functional, cell-based
MDA-MB-468 = test: Cytotoxicity against human MDA-MB-468 cells harboring wild type BRCA1 and BRCA2 mutant reduction in assessed as cell viability; type: functional, cell-based
SUM-159-PT [12] = test: Cytotoxicity against human SUM159PT cells harboring wild type BRCA1 and wild type BRCA2 assessed as reduction in cell viability; type: functional, cell-based
MDA-MB-231 [13] = test: Inhibition of colony formation in human MDA-MB-231 cells measured for 7 days by crystal violet staining based assay; type: functional, cell-based; conditions: dose 2.5 µM, time 7.0 day, DDE = dose-dependent effect
SUM-159-PT [14] = test: Inhibition of colony formation in human SUM159PT cells measured for 7 days by crystal violet staining based assay; type: functional, cell-based; conditions: dose 2.5 µM, time 7.0 day, DDE = dose-dependent effect
[15] = target: Histone deacetylase (Homo sapiens) (UniProt Q13547+O15379+Q9UBN7+Q92769+Q9UQL6+Q8WUI4+Q9BY41+Q96DB2+P56524+Q9UKV0+Q969S8); test: Inhibition of HDAC in human BT-549 cells assessed as increase in acetylated alpha-tubulin level at 1.25 to 5 uM by Western blot analysis; type: cell-based; conditions: dose 1.25-5 µM
BT-549 = test: Induction of DNA damage in human BT-549 at 1.25 to 5 uM assessed as increase in gamma-H2AX level and measured for 48 hrs by DAPI staining method; type: functional, cell-based; conditions: dose 1.25-5 µM
SUM-159-PT [16] = test: Induction of DNA damage in human SUM159PT at 1.25 to 5 uM assessed as increase in gamma-H2AX level and measured for 48 hrs by DAPI staining method; type: functional, cell-based; conditions: dose 1.25-5 µM
MDA-MB-231 [17] = test: Antitumor activity against human MDA-MB-231 cells xenografted in BALB/c-nu/nu mouse assessed as reduction in tumor growth at 2.5 mg/kg, ip measured for 31 days; type: functional, organism-based; conditions: time 31.0 day
MDA-MB-231 [18] = test: Antitumor activity against human MDA-MB-231 cells xenografted in BALB/c-nu/nu mouse assessed as reduction in tumor volume at 2.5 mg/kg, ip measured for 31 days; type: functional, organism-based; conditions: time 31.0 day
MDA-MB-231 [19] = test: Antitumor activity against human MDA-MB-231 cells xenografted in BALB/c-nu/nu mouse assessed as tumor growth inhibition at 2.5 mg/kg, ip measured for 31 days; type: functional; conditions: MDA-MB-231, 744 h, time 31 day, read-out: TGI
[20] = Toxicity in BALB/c-nu/nu mouse at 2.5 mg/kg, ip measured for 31 days; type: organism-based; conditions: in vivo, 744 h, time 31 day
[21] = Toxicity in BALB/c-nu/nu mouse assessed as toxic sign at 2.5 mg/kg, ip measured for 31 days; type: organism-based; conditions: in vivo, 744 h, time 31 day
HeLa = test: Potency index, ratio of SAHA IC50 to test compound IC50 for inhibition of HDAC in human HeLa nuclear extract

DC50 (Quadruplex DNA [1]): 400 nM
IC50 (Histone deacetylase 4): 2640 nM
Kd (Quadruplex DNA [3]): > 10 µM
ΔTm (Quadruplex DNA [4]): 1.2 °C
ΔTm (Quadruplex DNA [5]): 2 °C
DC50 (Quadruplex DNA [6]): 100 nM
IC50 (Histone deacetylase): 1.1 µM
inhibition [15]: Active
Compound: CN(C)CCCNC(=O)c1ccc(/C=C2\CCn3c2nc2cc(N4CCN(CCCCCCCC(=O)NO)CC4)c(F)cc2c3=O)cc1.Cl
IC50 [2]: 1380 nM
Activity (MDA-MB-231 [7]): Active
Activity (MDA-MB-231 [8]): Active
Activity (MDA-MB-231 [9]): Active
Activity (MDA-MB-231 [10]): Active
IC50 (MDA-MB-231 [11]): 4.1 µM
IC50 (MDA-MB-468): 3.3 µM
IC50 (SUM-159-PT [12]): 7.4 µM
inhibition (MDA-MB-231 [13]): Dde
inhibition (SUM-159-PT [14]): Dde
Activity (BT-549): Active
Activity (SUM-159-PT [16]): Active
Activity (MDA-MB-231 [17]): Active
Activity (MDA-MB-231 [18]): Active
inhibition in vivo at 2.5 mg/kg (MDA-MB-231 [19]): 69%
Activity [20]: Non-Toxic
Activity [21]: Non-Toxic
Ratio IC50 (HeLa): 20
